In US12521393B2, “Cytotoxicity targeting chimeras for CCR2-expressing cells” (GLAXOSMITHKLINE INTELLECTUAL PROPERTY DEVELOPMENT LIMITED, priority 2021, dated 2026):

Tested on: endogenous target monocytes in human PBMC
Assay: PBMC ex vivo monocyte depletion flow cytometry assay (Example 200)
Type: cell-based
Details: with anti-cotinine antibody (SEQ ID NO: 11/12), 18-24 hours, EC50 in molar, read-out: Ex Vivo Depletion Assay pEC50 (converted)
In short: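 Monocyte depletion is reported as pEC50, averaged or given individually across runs, and read by flow cytometry staining CD45, CD14 and CD4 with a viability dye. Compounds, diluted four-fold over 11 points from 1 mM DMSO stocks, were combined with 30 μg/mL Fc-enhanced anti-cotinine antibody and human PBMC, then incubated 18-24 h at 37° C.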

Structure (SMILES)	EC50
CC(C)N(C)[C@@H]1CC[C@H](N2CC[C@H](Nc3ncnc4ccc(C(F)(F)F)cc34)C2=O)[C@H](NC(=O)[C@H]2C[C@H](NC(=O)CCOCCNC(=O)CCOCCNC(=O)[C@@H]3CC(=O)N(C)[C@H]3c3cccnc3)C2)C1 [Example 45, (2S,3S)-N-(2-(3-((2-(3-(((1R,3r)-3-(((1R,2S,5R)-5-(Isopropyl(methyl)amino)-2-((S)-2-oxo-3-((6-(trifluoromethyl)quinazolin-4-yl)amino)pyrrolidin-1-yl)cyclohexyl)carbamoyl)cyclobutyl)amino)-3-oxopropoxy)ethyl)amino)-3-ixopropoxy)ethyl)-1-methyl-5-oxo-2-(pyridin-3-yl)pyrrolidine-3-carboxamide]	2 nM
CC(C)N(C)[C@@H]1CC[C@H](N2CC[C@H](Nc3ncnc4ccc(C(F)(F)F)cc34)C2=O)[C@H](NC(=O)COCCCCCCCCCOCCCCCCCNC(=O)[C@H]2CC(=O)N(C)[C@@H]2c2cccnc2)C1 [Example 153, (2S,3S)-N-(7-((9-(2-(((1R,2S,5R)-5-(Isopropyl(methyl)amino)-2-((S)-2-oxo-3-((6-(trifluoromethyl)quinazolin-4-yl)amino)pyrrolidin-1-yl)cyclohexyl)amino)-2-oxoethoxy)nonyl)oxy)heptyl)-1-methyl-5-oxo-2-(pyridin-3-yl)pyrrolidine-3-carboxamide]	0.631 nM
CC(C)N(C)[C@@H]1CC[C@H](N2CC[C@H](Nc3ncnc4ccc(C(F)(F)F)cc34)C2=O)[C@H](NC(=O)COCC(=O)N2CCN(C(=O)N3CCN(C(=O)COCCNC(=O)[C@H]4CC(=O)N(C)[C@@H]4c4cccnc4)CC3)CC2)C1 [Example 84, (2S,3S)-N-(2-(2-(4-(4-(2-(2-(((1R,2S,5R)-5-(isopropyl(methyl)amino)-2-((S)-2-oxo-3-((6-(trifluoromethyl)quinazolin-4-yl)amino)pyrrolidin-1-yl)cyclohexyl)amino)-2-oxoethoxy)acetyl)piperazine-1-carbonyl)piperazin-1-yl)-2-oxoethoxy)ethyl)-1-methyl-5-oxo-2-(pyridin-3-yl)pyrrolidine-3-carboxamide]	1 nM
CC(C)N(C)[C@@H]1CC[C@H](N2CC[C@H](Nc3ncnc4ccc(C(F)(F)F)cc34)C2=O)[C@H](NC(=O)[C@H]2CC[C@H](N3CCN(CCOCCOCCNC(=O)[C@H]4CC(=O)N(C)[C@@H]4c4cccnc4)CC3)CC2)C1 [Example 190, (2S,3S)-N-(2-(2-(2-(4-((1R,4r)-4-(((1R,2S,5R)-5-(isopropyl(methyl)amino)-2-((S)-2-oxo-3-((6-(trifluoromethyl)quinazolin-4-yl)amino)pyrrolidin-1-yl)cyclohexyl)carbamoyl)cyclohexyl)piperazin-1-yl)ethoxy)ethoxy)ethyl)-1-methyl-5-oxo-2-(pyridin-3-yl)pyrrolidine-3-carboxamide]	3.16 nM
CC(C)N(C)[C@@H]1CC[C@H](N2CC[C@H](Nc3ncnc4ccc(C(F)(F)F)cc34)C2=O)[C@H](NC(=O)c2cc(OCCOCCOCCOCCOCCNC(=O)[C@H]3CC(=O)N(C)[C@@H]3c3cccnc3)ccn2)C1 [Example 88, N-((1R,2S,5R)-5-(Isopropyl(methyl)amino)-2-((S)-2-oxo-3-((6-(trifluoromethyl)quinazolin-4-yl)amino)pyrrolidin-1-yl)cyclohexyl)-4-((1-((2S,3S)-1-methyl-5-oxo-2-(pyridin-3-yl)pyrrolidin-3-yl)-1-oxo-5,8,11,14-tetraoxa-2-azahexadecan-16-yl)oxy)picolinamide]	7.94 nM
CC(C)N(C)[C@@H]1CC[C@H](N2CC[C@H](Nc3ncnc4ccc(C(F)(F)F)cc34)C2=O)[C@H](NC(=O)c2cccc(NCCOCCOCCOCCOCCNC(=O)[C@H]3CC(=O)N(C)[C@@H]3c3cccnc3)n2)C1 [Example 123, N-((1R,2S,5R)-5-(Isopropyl(methyl)amino)-2-((S)-2-oxo-3-((6-(trifluoromethyl)quinazolin-4-yl)amino)pyrrolidin-1-yl)cyclohexyl)-6-((1-((2S,3S)-1-methyl-5-oxo-2-(pyridin-3-yl)pyrrolidin-3-yl)-1-oxo-5,8,11,14-tetraoxa-2-azahexadecan-16-yl)amino)picolinamide]	15.8 nM
CC(C)N(C)[C@@H]1CC[C@H](N2CC[C@H](Nc3ncnc4ccc(C(F)(F)F)cc34)C2=O)[C@H](NC(=O)[C@H]2CC[C@@H](N3CCN(CCCCCCCCNC(=O)[C@H]4CC(=O)N(C)[C@@H]4c4cccnc4)CC3)CC2)C1 [Example 145, (2S,3S)-N-(8-(4-((1S,4s)-4-(((1R,2S,5R)-5-(Isopropyl(methyl)amino)-2-((S)-2-oxo-3-((6-(trifluoromethyl)quinazolin-4-yl)amino)pyrrolidin-1-yl)cyclohexyl)carbamoyl)cyclohexyl)piperazin-1-yl)octyl)-1-methyl-5-oxo-2-(pyridin-3-yl)pyrrolidine-3-carboxamide]	1.26 nM
CC(C)N(C)[C@@H]1CC[C@H](N2CC[C@H](Nc3ncnc4ccc(C(F)(F)F)cc34)C2=O)[C@H](NC(=O)C2CC=C(c3ccc(OCCCCCCNC(=O)[C@H]4CC(=O)N(C)[C@@H]4c4cccnc4)cc3)CC2)C1 (stereo partly drawn) [Example 158, (2S,3S)-N-(6-((4′-(((1R,2S,5R)-5-(Isopropyl(methyl)amino)-2-((S)-2-oxo-3-((6-(trifluoromethyl)quinazolin-4-yl)amino)pyrrolidin-1-yl)cyclohexyl)carbamoyl)-2′,3′,4′,5′-tetrahydro-[1,1′-biphenyl]-4-yl)oxy)hexyl)-1-methyl-5-oxo-2-(pyridin-3-yl)pyrrolidine-3-carboxamide]	0.501 nM
CC(C)N(C)[C@@H]1CC[C@H](N2CC[C@H](Nc3ncnc4ccc(C(F)(F)F)cc34)C2=O)[C@H](NC(=O)CCCOC[C@H]2CC[C@H](COCCNC(=O)[C@H]3CC(=O)N(C)[C@@H]3c3cccnc3)CC2)C1 [Example 58, (2S,3S)-N-(2-(((1R,4S)-4-((4-(((1R,2S,5R)-5-(Isopropyl(methyl)amino)-2-((S)-2-oxo-3-((6-(trifluoromethyl)quinazolin-4-yl)amino)pyrrolidin-1-yl)cyclohexyl)amino)-4-oxobutoxy)methyl)cyclohexyl)methoxy)ethyl)-1-methyl-5-oxo-2-(pyridin-3-yl)pyrrolidine-3-carboxamide]	7.94 nM
CC(C)N(C)[C@@H]1CC[C@H](N2CC[C@H](Nc3ncnc4ccc(C(F)(F)F)cc34)C2=O)[C@H](NC(=O)c2cnn(C3CCN(CCOCCOCCOCCNC(=O)[C@H]4CC(=O)N(C)[C@@H]4c4cccnc4)CC3)c2)C1 [Example 129, N-((1R,2S,5R)-5-(Isopropyl(methyl)amino)-2-((S)-2-oxo-3-((6-(trifluoromethyl)quinazolin-4-yl)amino)pyrrolidin-1-yl)cyclohexyl)-1-(1-(1-((2S,3S)-1-methyl-5-oxo-2-(pyridin-3-yl)pyrrolidin-3-yl)-1-oxo-5,8,11-trioxa-2-azatridecan-13-yl)piperidin-4-yl)-1H-pyrazole-4-carboxamide]	1.26 nM
CC(C)N(C)[C@@H]1CC[C@H](N2CC[C@H](Nc3ncnc4ccc(C(F)(F)F)cc34)C2=O)[C@H](NC(=O)C2CCN(C3CCN(C4CCN(CCCCNC(=O)[C@H]5CC(=O)N(C)[C@@H]5c5cccnc5)CC4)CC3)CC2)C1 [Example 185, N-((1R,2S,5R)-5-(isopropyl(methyl)amino)-2-((S)-2-oxo-3-((6-(trifluoromethyl)quinazolin-4-yl)amino)pyrrolidin-1-yl)cyclohexyl)-1″-(4-((2S,3S)-1-methyl-5-oxo-2-(pyridin-3-yl)pyrrolidine-3-carboxamido)butyl)-[1,4′:1′,4″-terpiperidine]-4-carboxamide]	0.0631 nM
